Several values for one entry are separate records, joined by “and”; a condition that tells them apart may be missing. Equal entries are not always repeated.
System: peripheral blood lymphocytes
Assay: Cytokinesis-block micronucleus (CBMN) assay, NNK-treated lymphocyte cultures of lung cancer cases and controls
Type: cell-based, human
Design: Control Subjects, % with ≧5 NNK-induced MN / Control Subjects, % with 0 or 2 NNK-induced NPBs / Control Subjects, % with 3 or 5 NNK-induced NPBs / Control Subjects, % with 1 NNK-induced NBUDs: concentration or dose not given beside the values; Control Subjects, % with 3 or 4 NNK-induced MN: tested at 0.24 mM
Details: for NNK-induced NPBs, Mean ± SE / NNK-induced NPBs, Median / NNK-induced MN, Mean ± SE / NNK-induced MN, Median / NNK-induced NBUDs, Mean ± SE / NNK-induced NBUDs, Median: Control, 0.24 mM NNK
Procedure: The CBMN test was performed using the cytochalasin B technique described by Fenech and Morley (22) and following recommendations from The International Collaborative Project on Micronucleus Frequency in Human Populations (HUMN Project) to measure MN, NPBs and NBUDs in untreated cells and NNK-treated cells (27). Duplicate lymphocyte cultures were prepared for each study subject. Each culture contained 2.0×10^6 cells in 5 mL RPMI 1640 medium supplemented with 100 U/mL penicillin, 100 μg/mL streptomycin, 10% fetal bovine serum, and 2 mM L-glutamine (Gibco-Invitrogen, Carlsbad, Calif.) and 1% phytohemagglutinin (Remel, Lenexa, Kans.). For the cultures treated with NNK, 24 hours after initiation, the PBLs were centrifuged and the supernatant growth medium was removed and reserved. The PBLs were resuspended in 5 mL of serum-free RPMI 1640 medium supplemented with 0.24 mM NNK (a dose previously used by us and others (23-26) (CAS No. 64091-91-4, National Cancer Institute, Midwest Carcinogen Repository, Kansas City, Mo.; purity>98%) and incubated at 37° C. in the presence of 5% CO2 for 2 hours.
Next, the PBLs were washed twice with serum-free RPMI 1640, transferred to clean tubes and re-incubated for […] in the reserved supernatant. At 44 hours after initiation, cells were blocked in cytokinesis by adding cytochalasin B (Sigma, St. Louis, Mo.; final concentration 4 µg/mL). Similarly, cultures for the determination of spontaneous damage (untreated cells) were handled in the same manner, with the exception of treatment with NNK. The total incubation time for all cultures was 72 hours. After incubation, the cells were fixed in 3:1 methanol:glacial acetic acid, dropped onto clean microscopic slides, air-dried and stained with Giemsa stain. For each sample, 1000 binucleated cells were scored blindly using a Nikon E-400 light optical microscope following the scoring criteria outlined by HUMN Project (2,22,27); the numbers of MN, NPBs, and NBUDs per 1000 binucleated cells were recorded. For quality control, 20% of the slides were randomly selected and blindly rescored and the results compared with the original scoring.

[1] = MN/1000 binucleated cells, 130 controls
[2] = MN/1000 binucleated cells, 139 cases
[3] = lymphocytes from patients with lung cancer vs controls
[4] = per 1000 binucleated cells, 130 controls
[5] = per 1000 binucleated cells, 139 cases

SMILES: CN(CCCC(=O)c1cccnc1)N=O [NNK, 4-(methylnitrosamino)-1-(3-pyridyl)-1-butanone]
- NNK-induced NPBs, Mean ± SE (Females): 2.68 ± 0.19 per 1000 binucleated cells
- NNK-induced NPBs, Median (Females): 2.0 per 1000 binucleated cells
- NNK-induced MN, Mean ± SE (History of Alcohol Use No): 2.54 ± 0.15 per 1000 binucleated cells
- NNK-induced MN, Median (History of Alcohol Use No): 3.00 per 1000 binucleated cells
- NNK-induced NBUDs, Mean ± SE (History of Alcohol Use No): 0.14 ± 0.04 per 1000 binucleated cells
- NNK-induced NBUDs, Median (History of Alcohol Use No): 0.00 per 1000 binucleated cells
- NNK-induced NPBs, Mean ± SE (History of Alcohol Use No): 2.40 ± 0.13 per 1000 binucleated cells
- NNK-induced NPBs, Median (History of Alcohol Use No): 2.00 per 1000 binucleated cells
- NNK-induced MN, Mean ± SE (History of Alcohol Use Yes): 2.61 ± 0.15 per 1000 binucleated cells
- NNK-induced MN, Median (History of Alcohol Use Yes): 2.00 per 1000 binucleated cells
- NNK-induced NBUDs, Mean ± SE (History of Alcohol Use Yes): 0.11 ± 0.04 per 1000 binucleated cells
- NNK-induced NBUDs, Median (History of Alcohol Use Yes): 0.00 per 1000 binucleated cells
- NNK-induced NPBs, Mean ± SE (History of Alcohol Use Yes): 2.32 ± 0.12 per 1000 binucleated cells
- NNK-induced NPBs, Median (History of Alcohol Use Yes): 2.00 per 1000 binucleated cells
- NNK-induced MN, Mean ± SE (Males): 2.63 ± 0.11 per 1000 binucleated cells
- NNK-induced MN, Median (Males): 3.0 per 1000 binucleated cells
- NNK-induced NBUDs, Mean ± SE (Males): 0.12 ± 0.03 per 1000 binucleated cells
- NNK-induced NBUDs, Median (Males): 0.0 per 1000 binucleated cells
- NNK-induced NPBs, Mean ± SE (Males): 2.27 ± 0.10 per 1000 binucleated cells
- NNK-induced NPBs, Median (Males): 2.0 per 1000 binucleated cells
- NNK-induced MN, Mean ± SE (Overall): 2.62±0.10 per 1000 binucleated cells and 2.62 ± 0.1 per 1000 binucleated cells
- NNK-induced MN, Median (Overall): 3.0 per 1000 binucleated cells and 3 per 1000 binucleated cells
- NNK-induced NBUDs, Mean ± SE (Overall): 0.12±0.03 per 1000 binucleated cells
- NNK-induced NBUDs, Median (Overall): 0.0 per 1000 binucleated cells and 0 per 1000 binucleated cells
- NNK-induced NPBs, Mean ± SE (Overall): 2.38±0.09 per 1000 binucleated cells
- NNK-induced NPBs, Median (Overall): 2.0 per 1000 binucleated cells and 2 per 1000 binucleated cells
- NNK-induced MN, Mean ± SE (Years smoked > 32): 2.69 ± 0.12 per 1000 binucleated cells
- NNK-induced MN, Median (Years smoked > 32): 3.0 per 1000 binucleated cells
- NNK-induced NBUDs, Mean ± SE (Years smoked > 32): 0.13 ± 0.04 per 1000 binucleated cells
- NNK-induced NBUDs, Median (Years smoked > 32): 0.0 per 1000 binucleated cells
- NNK-induced NPBs, Mean ± SE (Years smoked > 32): 2.39 ± 0.09 per 1000 binucleated cells
- NNK-induced NPBs, Median (Years smoked > 32): 2.0 per 1000 binucleated cells
- NNK-induced MN, Mean ± SE (Years smoked ≦ 32): 2.33 ± 1.02 per 1000 binucleated cells
- NNK-induced MN, Median (Years smoked ≦ 32): 2.0 per 1000 binucleated cells
- NNK-induced NBUDs, Mean ± SE (Years smoked ≦ 32): 0.06 ± 0.04 per 1000 binucleated cells
- NNK-induced NBUDs, Median (Years smoked ≦ 32): 0.0 per 1000 binucleated cells
- NNK-induced NPBs, Mean ± SE (Years smoked ≦ 32): 2.36 ± 0.19 per 1000 binucleated cells
- NNK-induced NPBs, Median (Years smoked ≦ 32): 2.0 per 1000 binucleated cells
- Control Subjects, % with 1 or 2 NNK-induced MN [1]: 49% and 49.2%
- Control Subjects, % with 3 or 4 NNK-induced MN [1]: 44.6%
- Control Subjects, % with ≧5 NNK-induced MN [1]: 6% and 6.2%
- Control Subjects, No. with 1 or 2 NNK-induced MN [1]: 64
- Control Subjects, No. with 3 or 4 NNK-induced MN [1]: 58
- Control Subjects, No. with ≧5 NNK-induced MN [1]: 8
- Case Patients, % with 1 or 2 NNK-induced MN [2]: 4% and 3.6%
- Case Patients, % with 3 or 4 NNK-induced MN [2]: 56.1%
- Case Patients, No. with 1 or 2 NNK-induced MN [2]: 5
- Case Patients, No. with 3 or 4 NNK-induced MN [2]: 78
- Case Patients, No. with ≧5 NNK-induced MN [2]: 56
- Increase in NNK-induced MN frequency, lung cancer patients over controls [3]: 1.6 fold
- Increase in NNK-induced NBUD frequency, lung cancer patients over controls [3]: 8.9 fold
- Increase in NNK-induced NPB frequency, lung cancer patients over controls [3]: 3.4 fold
- Control Subjects, % with 0 NNK-induced NBUDs [4]: 87% and 86.9%
- Control Subjects, % with 0 or 2 NNK-induced NPBs [4]: 65% and 64.6%
- Control Subjects, % with 1 NNK-induced NBUDs [4]: 11.5%
- Control Subjects, % with 3 or 5 NNK-induced NPBs [4]: 35.4%
- Control Subjects, No. with 0 NNK-induced NBUDs [4]: 113
- Control Subjects, No. with 0 or 2 NNK-induced NPBs [4]: 84
- Control Subjects, No. with 1 NNK-induced NBUDs [4]: 15
- Control Subjects, No. with 3 or 5 NNK-induced NPBs [4]: 46
- Control Subjects, No. with ≧2 NNK-induced NBUDs [4]: 2
- Control Subjects, No. with ≧6 NNK-induced NPBs [4]: 0
- Case Patients, % with 0 NNK-induced NBUDs [5]: 35% and 34.5%
- Case Patients, % with 1 NNK-induced NBUDs [5]: 42.5%
- Case Patients, % with 3 or 5 NNK-induced NPBs [5]: 10.8%
- Case Patients, No. with 0 NNK-induced NBUDs [5]: 48
- Case Patients, No. with 0 or 2 NNK-induced NPBs [5]: 0
- Case Patients, No. with 1 NNK-induced NBUDs [5]: 59
- Case Patients, No. with 3 or 5 NNK-induced NPBs [5]: 15
- Case Patients, No. with ≧2 NNK-induced NBUDs [5]: 32
- Case Patients, No. with ≧6 NNK-induced NPBs [5]: 124
